How the values were obtained:
[1] = Metabolic stability in rat liver microsomes assessed as compound remaining at 4 uM preincubated for 5 mins followed by NADPH addition measured after 60 mins by LC/MS analysis; type: ADME, microsome; conditions: read-out: Stability
[2] = Therapeutic index, ratio of TC50 for human PBMC to IC50 for HIV-1 Bal infected in human PBMC
[3] = system: Human immunodeficiency virus 1; type: functional, cell-based; conditions: Human immunodeficiency virus 1, A17, MAGI-CCR5, 48 h
[4] = Cytotoxicity against human PBMC assessed as reduction in cell viability by MTS assay; type: cell-based; conditions: read-out: TC50 (the source's name)
PBMC = assay: Antiviral activity against HIV-1 Bal infected in human PBMC by MTS assay; type: functional, cell-based
[5] = Cytotoxicity against human MAGI-CCR5 cells assessed as reduction in cell viability after 48 hrs by MTS assay; type: cell-based; conditions: read-out: TC50
[6] = Therapeutic index, ratio of TC50 for human MAGI-CCR5 cells to IC50 for HIV-1 NL4-3 infected in MAGI-CCR5 cells
[7] = system: Human immunodeficiency virus 1; assay: Antiviral activity against HIV-1 Bal infected in human MAGI-CCR5 cells assessed as reduction in viral infection after 48 hrs by fluorescence based beta-galactosidase reporter gene assay; type: functional, cell-based; conditions: for IC50 / IC90: Human immunodeficiency virus 1, Bal, MAGI-CCR5, 48 h
[8] = system: Human immunodeficiency virus 1; assay: microbe, parasite or virus in culture; conditions: Human immunodeficiency virus 1, NL4-3, MAGI-CCR5, 48 h
Description: Antiviral activity against wild type HIV-1 NL4-3 infected in human MAGI-CCR5 cells assessed as reduction in viral infection after 48 hrs by fluorescence based beta-galactosidase reporter gene assay

[9] = Metabolic stability in rat plasma assessed as compound remaining at 100 uM after 1 hr by LC/MS analysis; type: ADME, cell-free; conditions: read-out: Stability
[10] = Therapeutic index, ratio of TC50 for human MAGI-CCR5 cells to IC50 for HIV-1 Bal infected in MAGI-CCR5 cells
[11] = system: Human immunodeficiency virus 1; assay: (§1) Inhibition of HIV1 NL4-3 reverse transcriptase assessed as reduction in [3H]dTTP incorporation using poly(rA)/oligo(dT) as template/primer after 1 hr by microbeta scintillation counting analysis
[12] = as §1; set-up: species or system Human immunodeficiency virus 1
[13] = system: Human immunodeficiency virus 1; assay: microbe, parasite or virus in culture; conditions: Human immunodeficiency virus 1, NL4-3, MAGI-CCR5, 48 h; remark: listed apart in the source
Description: Antiviral activity against HIV-1 NL4-3 harboring reverse transcriptase E138A mutant infected in human MAGI-CCR5 cells assessed as reduction in viral infection after 48 hrs by fluorescence based beta-galactosidase reporter gene assay

[14] = system: Human immunodeficiency virus 1; type: functional, cell-based; conditions: Human immunodeficiency virus 1, NL4-3, MAGI-CCR5, 48 h
[15] = system: Human immunodeficiency virus 1; assay: Antiviral activity against HIV-1 NL4-3 harboring reverse transcriptase K103N mutant infected in human MAGI-CCR5 cells assessed as reduction in viral infection after 48 hrs by fluorescence based beta-galactosidase reporter gene assay; type: functional, cell-based; conditions: Human immunodeficiency virus 1, NL4-3, MAGI-CCR5, 48 h
[16] = Therapeutic index, ratio of TC50 for human MAGI-CCR5 cells to IC50 for HIV-1 NL4-3 harboring reverse transcriptase E138A mutant infected in MAGI-CCR5 cells
[17] = Therapeutic index, ratio of TC50 for human MAGI-CCR5 cells to IC50 for HIV-1 NL4-3 harboring reverse transcriptase K103N mutant infected in MAGI-CCR5 cells

Row | Compound | remaining at 1 h, 4 µM [1] [%] | TI [2] | IC50 [3] [µM] | CC50 [4] [µM] | IC50 (PBMC) [µM] | IC90 (PBMC) [µM] | CC50 at 48 h [5] [µM] | TI [6] | Activity [7] | IC50 [7] [µM] | IC90 [7] [µM] | IC50 [8] [µM] | IC90 [8] [µM] | remaining at 1 h, 100 µM [9] [%] | TI [10] | also measured
1 | COc1ccc(C2NC(=O)NC(C)=C2c2nc(-c3ccc(C#N)cc3)cs2)cc1 (stereo not given) | 63.1 | 638 | 3.4 | 76.6 | 0.12 | 0.3 | 7 | 110 | Dose-dependent effect | 0.08 | 0.37 | 0.05 | 0.62 | 96 | 88 | IC90 [3]: 24 µM
2 | CC1=C(c2nc(-c3ccc(C#N)cc3)cs2)C(c2cccc(O)c2)NC(=O)N1 (stereo not given) | 52.4 | 442 | – | 84 | 0.19 | 0.66 | 98 | – | Dose-dependent effect | 0.44 | 2.1 | – | – | 88.5 | 223 | –
3 | CC1=C(c2nc(-c3ccc(C#N)cc3)cs2)[C@@H](c2cccc(O)c2)NC(=O)N1 | – | >909 | – | > 100 | 0.11 | 0.42 | – | – | – | – | – | – | – | – | – | inhibition [11]: Dose-dependent effect; IC50 [12]: 0.6 µM
4 | Cc1ccnc2c1NC(=O)c1cccnc1N2C1CC1 [NEVIRAPINE] | – | – | > 10 | – | 0.04 to 0.06 | 0.18 to 0.19 | – | – | Dose-dependent effect | 0.04 | 0.03 to 0.42 | 0.04 to 0.07 | 0.54 to 0.6 | – | – | IC90 [13]: > 10 µM; IC50 [14]: > 10 µM; IC90 [14]: > 10 µM; IC50 [15]: 0.03 µM; IC90 [15]: 0.35 µM
5 | CC1=C(c2nc(-c3ccc(C#N)cc3)cs2)C(c2ccc(Br)nc2)NC(=O)N1 (stereo not given) | 67.6 | 476 | > 100 | > 100 | 0.21 | 0.57 | > 100 | >200 | Dose-dependent effect | 0.35 | 1.4 | 0.5 | 3.2 | 98.3 | 286 | IC90 [3]: > 100 µM
6 | CC1=C(c2nc(-c3ccc(C#N)cc3)cs2)C(c2ccc(C(F)(F)F)nc2)NC(=O)N1 (stereo not given) | – | 83 | > 100 | > 100 | 1.2 | 4.6 | > 100 | >116 | Dose-dependent effect | 1.1 | 7.3 | 0.86 | 7.7 | – | 91 | IC90 [3]: > 100 µM
7 | CC1=C(c2nc(-c3ccc(C#N)cc3)cs2)C(c2ccc(O)cc2)NC(=O)N1 (stereo not given) | 100 | 2500 | 28 | > 100 | 0.04 | 0.12 | > 10 | 765 | Dose-dependent effect | 0.04 | 0.52 | 0.06 | 0.62 | 100 | 250 | IC90 [3]: 95 µM
8 | CC1=C(c2nc(-c3ccc(C#N)cc3)cs2)C(c2ccc(F)nc2)NC(=O)N1 (stereo not given) | 49.4 | 170 | > 100 | > 100 | 0.59 | 2 | > 100 | >91 | Dose-dependent effect | 1.1 | 5.4 | 1.1 | 7.6 | 100 | 91 | IC90 [3]: > 100 µM
9 | Cc1cn([C@H]2C[C@H](N=[N+]=[N-])[C@@H](CO)O2)c(=O)[nH]c1=O [ZIDOVUDINE] | – | – | – | – | – | – | > 1 | – | – | – | – | – | 0.35 | – | – | IC90 [13]: > 1 µM; IC50 [14]: 0.009 µM; IC90 [14]: 0.1 µM; IC50 [15]: 0.01 µM; IC90 [15]: 0.21 µM
10 | COc1ccc(C2NC(=O)NC(C)=C2c2nc(-c3ccc(C#N)cc3)cs2)cn1 (stereo not given) | 69.4 | 833 | > 100 | > 100 | 0.12 | 0.43 | > 10 | >313 | Dose-dependent effect | 0.1 | 0.58 | < 0.32 | 1.9 | 100 | 100 | IC90 [3]: > 100 µM
11 | CC1=C(c2nc(-c3ccc(C#N)cc3)cs2)C(c2ccc(OC(F)(F)F)cc2)NC(=O)N1 (stereo not given) | – | 12 | – | > 100 | 8.6 | 21 | > 100 | – | Dose-dependent effect | 1.6 | 7.6 | – | – | – | 63 | –
12 | COc1ccc(-c2csc(C3=C(C)NC(=O)NC3c3cccc(O)c3)n2)cc1 (stereo not given) | – | 3 | – | 91 | 30 | 78 | > 100 | – | Dose-dependent effect | 66 | > 100 | – | – | – | 1.5 | –
13 | CC1=C(c2nc(-c3ccc(C#N)cc3)cs2)C(c2cncc(F)c2)NC(=O)N1 (stereo not given) | – | 189 | – | > 100 | 0.53 | 1.3 | > 100 | – | Dose-dependent effect | 0.7 | > 100 | – | – | – | 143 | –
14 | CC1=C(c2nc(-c3ccc(C#N)cc3)cs2)C(c2ccc(Cl)nc2)NC(=O)N1 (stereo not given) | 63.4 | 263 | – | > 100 | 0.38 | 0.94 | > 100 | – | Dose-dependent effect | 0.48 | 2.4 | – | – | 91.7 | 208 | –
15 | CC1=C(c2nc(-c3ccc4ccccc4c3)cs2)C(c2cccc(O)c2)NC(=O)N1 (stereo not given) | – | 3.6 | – | 47 | 13 | 29 | 55 | – | Dose-dependent effect | 43 | 84 | – | – | – | 1.3 | –
16 | CC1=C(c2nc(-c3ccccc3)cs2)C(c2cccc(O)c2)NC(=O)N1 (stereo not given) | – | 2 | – | 76 | 37 | 81 | > 100 | – | Dose-dependent effect | 79 | > 100 | – | – | – | 1.3 | –
17 | CC1=C(c2nc(-c3ccc(Cl)cc3)cs2)C(c2cccc(O)c2)NC(=O)N1 (stereo not given) | – | 50 | – | 65 | 1.3 | 4.1 | 55 | – | Dose-dependent effect | 1.9 | 11 | – | – | – | 29 | –
18 | CC1=C(c2nc(-c3ccc(C#N)cc3)cs2)C(c2cc3ccccc3n2C)NC(=O)N1 (stereo not given) | 62.9 | 91 | > 100 | > 100 | 1.1 | 3.2 | > 100 | >=111 - 192 | Dose-dependent effect | 0.7 | 3.7 | 0.52 to 0.9 | 5 to 8.39 | 95.6 | 143 | IC50 [13]: 43.5 µM; IC90 [13]: > 100 µM; IC50 [14]: > 100 µM; IC90 [14]: > 100 µM; IC50 [15]: 3.84 µM; IC90 [15]: > 100 µM; TI [16]: >2.3; TI [17]: >26.04
19 | CC1=C(c2nc(-c3ccc(C#N)cc3)cs2)[C@H](c2cccc(O)c2)NC(=O)N1 | – | >4.5 | – | – | 22 | 77 | – | – | – | – | – | – | – | – | – | IC50 [12]: > 10 µM
20 | CC1=C(c2nc(-c3ccc(C#N)cc3)cs2)C(c2ccnc3ccccc23)NC(=O)N1 (stereo not given) | – | 24 | – | 68.3 | 2.9 | 10.5 | > 100 | – | Dose-dependent effect | 3.8 | 98.3 | – | – | – | 26 | –
21 | CC1=C(c2nc(-c3ccc(C#N)cc3)cs2)C(c2ccc(Cl)nc2Cl)NC(=O)N1 (stereo not given) | – | 52 | – | 99.1 | 1.9 | 5.7 | > 100 | – | Dose-dependent effect | 0.86 | 5.8 | – | – | – | 116 | –
22 | CC1=C(c2nc(-c3ccc(C#N)cc3)cs2)C(c2cccc(OC(F)(F)F)c2)NC(=O)N1 (stereo not given) | – | 2.4 | – | > 100 | 41.2 | > 100 | > 100 | – | Dose-dependent effect | 2.4 | 69.8 | – | – | – | 42 | –
